Test results from patent US8389571B2, “Benzofuran derived HIV protease inhibitors” (Sequoia Pharmaceuticals, Inc., priority 2007, dated 2013).
pIC50, pKi: −log10 of the molar value.

Tests used:
HIV protease (wt) = target: T1, HIV protease (wt) (Human immunodeficiency virus type 1 group M subtype B, UniProt P04585); assay: HIV protease inhibitory activity, wild type; format: biochemical
T1 construct: over 45 of the 99 amino acids of the HIV protease monomer

HIV protease Mutant 9 = HIV protease Mutant 9 (Human immunodeficiency virus type 1, UniProt P04585); assay: HIV protease inhibitory activity, Mutant 9; format: biochemical; conditions: Mutant 9 protease
HIV protease Mutant 8 = HIV protease Mutant 8 (Human immunodeficiency virus type 1, UniProt P04585); assay: HIV protease inhibitory activity, Mutant 8; format: biochemical; conditions: Mutant 8 protease
HIV-1 WT = assay: Antiviral activity, in vitro drug sensitivity of HIV-1 isolates, WT; format: cell-based; conditions: Human immunodeficiency virus 1
Protocol: (§1) In Vitro Drug Sensitivity of HIV-1 Laboratory Isolates to PIs
(§2) The sensitivities of HIV-1 isolates against compounds of the invention were determined as previously described with minor modifications (Shiraska et al., Proc. Natl. Acad. Sci. USA, 92, 2398-2402 (1995)).

HIV-1 Mutant 9 = assay: Antiviral activity, in vitro drug sensitivity of HIV-1 isolates, Mutant 9; format: cell-based; conditions: Human immunodeficiency virus 1, read-out: Antiviral activity IC50 Mutant 9
Protocol: as §1, §2

HIV-1 Mutant 8 = assay: Antiviral activity, in vitro drug sensitivity of HIV-1 isolates, Mutant 8; format: cell-based; conditions: Human immunodeficiency virus 1, read-out: Antiviral activity IC50 Mutant 8
Protocol: as §1, §2

[1] = In vivo bioavailability, rat; conditions: 20 mg/kg p.o.
[2] = rat, oral administration; Miller et al., Bioorg Med Chem Lett. 1788-94 (2006); cited from earlier work

With `Cc1nc(COc2ccc(C[C@H](NC(=O)O[C@H]3CO[C@H]4OCC[C@H]43)[C@H](O)CN(CC(C)C)S(=O)(=O)c3ccc4occc4c3)cc2)cs1` [Compound D] the pKi (HIV protease (wt)) was > 10.30, the pKi (HIV protease Mutant 9) was 10.26 and the pKi (HIV protease Mutant 8) was > 10.30. It also gave a pIC50 (HIV-1 WT) of 8.85, a pIC50 (HIV-1 Mutant 9) of 7.49 and a pIC50 (HIV-1 Mutant 8) of 8.38. The “AUC (0-12)” value [1] was 11 ugxh/mL, the Cmax ([1]; in vivo, po) was 3.51 µM and the Tmax ([1]; in vivo, po) was 39.6 min. It also gave a bioavailability ([1]; in vivo, po) of 92%.

For `Cc1nc(COc2ccc(C[C@H](NC(=O)O[C@H]3CO[C@H]4OCC[C@H]43)[C@H](O)CN(CC(C)C)S(=O)(=O)c3ccc4c(c3)OCO4)cc2)cs1` [GW0385, reference compound], the pKi (HIV protease (wt)) was 10.00, the pKi (HIV protease Mutant 9) was 9.89 and the pKi (HIV protease Mutant 8) was > 10.30. It also gave a pIC50 (HIV-1 WT) of 9.10, a pIC50 (HIV-1 Mutant 9) of 7.38 and a pIC50 (HIV-1 Mutant 8) of 8.49. The “% F” value [2] was 10%.
